Counter-ions that a name gives are not always drawn.
Tests used:
Format in all cases: in vivo
mice [1] = assay: Elevated Plus Maze Test; conditions: 2 mg/kg oral
Experimental: (§1) The following three tests on mice were conducted to investigate the anti-depressant and anti-anxiety activities of the herbal composition of the present invention.
(§2) In all these tests, the test item was the herbal composition as described in Table 2 in the form of a powder. The reference item was Imipramine hydrochloride manufactured by Sigma-Aldrich, USA (for forced swimming and tail suspension tests), and Diazepam tablets supplied by Tianjin Lisheng Pharmaceutical Co. Ltd, China (for elevated plus maze test). Male mice weighing 18-22 g at the start of the study were obtained from the Guangdong Medical Laboratory Animal Center, China.
(§3) At the beginning of each test, the test item was administrated at three dose levels of 69, 208, and 624 mg per kg of mouse by oral route (gastric gavage). For the Forced Swimming Test and Tail Suspension Test, Imipramine was administrated at the dose level of 20 mg per kg of mouse by oral route (gastric gavage), whereas Diazepam was administrated at the dose level of 2 mg per kg of mouse by oral route (gastric gavage). The Control group only received physiological saline orally by gastric gavage.
In this common test for assessing anxiety, the mouse is initially placed in the center of an elevated plus-shaped maze consisting of 4 arms (2 open arms & 2 enclosed arms), with its head facing one of the two open arms. The basic measure is to determine the unconditioned response of the tested mouse to a potentially dangerous environment and the preference of the tested mouse for dark, enclosed places over bright places, and exposed places. Typically, the tested mice would avoid entering into open arms due to anxiety, and mice administrated with anxiolytic […] treatments would have decreased aversion to heights and open spaces.
In this test, two batches of mice were used and in each batch, the mice were allotted at random to five groups, each consisting of ten animals.
The ratio of open arm entry is the frequency of the times the mice entering the open arms to the total frequency of entry into both open and enclosed arms (in percentages). Likewise, the ratio of time spent in open arms is the proportion of time spent by the mice in the open arms to the total times spent in both open and enclosed arms (in percentages).

mice [2] = assay: Forced Swimming Test; conditions: 20 mg/kg oral
From the text: After an initial period of vigorous activity, the mice adopt a characteristic immobile posture which is readily identifiable.

mice [3] = assay: Tail Suspension Test; conditions: 20 mg/kg oral
Experimental: as §1, §2, §3
When a mouse is suspended by its tail, its basic instinct first drives him to struggle, but this inescapable stress will eventually force it to develop an immobile posture. […]

| Structure (SMILES) | Head dipping (mice [1]; First Batch, Control 16.2 ± 4.61) [times] | Ratio of time spent in open arms (mice [1]; First Batch, p<0.01 vs Control 31.94 ± 10.82) [%] | Ratio of open arms entry (mice [1]; First Batch, p<0.01 vs Control 36.16 ± 6.13) [%] | Head dipping (mice [1]; Second Batch, p<0.01 vs Control 14.0 ± 4.64) [times] | Ratio of time spent in open arms (mice [1]; Second Batch, p<0.01 vs Control 29.82 ± 8.88) [%] | Ratio of open arms entry (mice [1]; Second Batch, p<0.01 vs Control 33.66 ± 7.95) [%] | Time of immobility (mice [2]; First Batch, p<0.01 vs Control 93.19 ± 31.07) [s] | Time of immobility (mice [2]; Second Batch, p<0.01 vs Control 110.61 ± 28.03) [s] | Time of immobility (mice [3]; First Batch, p<0.01 vs Control 115.89 ± 39.27) [s] | Time of immobility (mice [3]; Second Batch, p<0.01 vs Control 100.76 ± 33.49) [s] |
| --- | --- | --- | --- | --- | --- | --- | --- | --- | --- | --- |
| CN1C(=O)CN=C(c2ccccc2)c2cc(Cl)ccc21 [Diazepam] | 20.67 ± 10.42 | 50.51 ± 10.58 | 51.27 ± 10.08 | 21.5 ± 6.15 | 47.52 ± 12.35 | 52.48 ± 9.97 |  |  |  |  |
| CN(C)CCCN1c2ccccc2CCc2ccccc21 [Imipramine, Imipramine hydrochloride] |  |  |  |  |  |  | 43.92 ± 17.63 | 59.90 ± 17.40 | 60.08 ± 16.67 | 52.66 ± 17.05 |

Source: patent publication US8252290B2, “Herbal composition for treatment of insomnia and other related disorders and a method of preparing the same” (Vita Green Health Products Company Limited, priority 2008, dated 2012)
